This is an account of results in PMC6628920 (Chemico-biological interactions, 2018).

For one data set, the target named is MRP1 (Homo sapiens, UniProt P33527). The class given is in vitro ADME.
The target of a further data set is T1, MRP4 (Homo sapiens, UniProt O15439).
T1 sequence (O15439 1-1325): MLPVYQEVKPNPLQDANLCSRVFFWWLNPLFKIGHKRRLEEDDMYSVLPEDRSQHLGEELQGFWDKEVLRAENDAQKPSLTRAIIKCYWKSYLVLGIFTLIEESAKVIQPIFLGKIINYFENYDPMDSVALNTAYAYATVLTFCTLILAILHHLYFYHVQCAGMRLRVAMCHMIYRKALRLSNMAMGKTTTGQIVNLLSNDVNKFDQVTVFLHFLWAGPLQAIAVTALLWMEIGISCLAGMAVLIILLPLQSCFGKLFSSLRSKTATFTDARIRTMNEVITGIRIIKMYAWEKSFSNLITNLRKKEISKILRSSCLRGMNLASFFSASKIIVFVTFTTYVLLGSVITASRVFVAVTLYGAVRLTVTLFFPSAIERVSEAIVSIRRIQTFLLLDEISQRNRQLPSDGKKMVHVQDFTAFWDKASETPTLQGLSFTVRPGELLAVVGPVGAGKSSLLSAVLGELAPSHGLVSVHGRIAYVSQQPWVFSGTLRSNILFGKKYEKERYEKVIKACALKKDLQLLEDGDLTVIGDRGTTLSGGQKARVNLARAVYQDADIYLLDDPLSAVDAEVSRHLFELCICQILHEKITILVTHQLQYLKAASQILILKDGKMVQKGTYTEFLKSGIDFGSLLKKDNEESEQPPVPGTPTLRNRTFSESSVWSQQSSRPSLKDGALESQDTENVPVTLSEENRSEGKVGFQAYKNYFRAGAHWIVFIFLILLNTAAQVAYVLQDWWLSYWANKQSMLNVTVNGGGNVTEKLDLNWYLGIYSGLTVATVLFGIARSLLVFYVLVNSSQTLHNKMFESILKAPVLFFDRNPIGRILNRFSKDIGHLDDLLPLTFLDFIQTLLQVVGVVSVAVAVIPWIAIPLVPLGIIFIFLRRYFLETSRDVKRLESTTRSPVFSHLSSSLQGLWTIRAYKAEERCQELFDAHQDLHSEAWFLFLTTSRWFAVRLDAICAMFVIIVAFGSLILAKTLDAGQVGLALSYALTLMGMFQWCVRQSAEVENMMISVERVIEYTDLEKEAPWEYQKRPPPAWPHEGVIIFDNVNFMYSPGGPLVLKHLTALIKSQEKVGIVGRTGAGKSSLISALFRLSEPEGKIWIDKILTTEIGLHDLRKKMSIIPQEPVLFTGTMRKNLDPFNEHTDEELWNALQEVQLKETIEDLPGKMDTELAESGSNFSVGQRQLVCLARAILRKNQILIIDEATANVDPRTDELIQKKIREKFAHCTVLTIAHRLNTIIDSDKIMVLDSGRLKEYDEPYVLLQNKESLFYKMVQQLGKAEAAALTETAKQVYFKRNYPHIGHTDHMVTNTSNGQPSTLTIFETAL
In kind it is in vitro ADME.

Data set [1] concerns the target T2, recombinant UGT1A1 (Homo sapiens, UniProt P22309).
T2 sequence (P22309 26-533): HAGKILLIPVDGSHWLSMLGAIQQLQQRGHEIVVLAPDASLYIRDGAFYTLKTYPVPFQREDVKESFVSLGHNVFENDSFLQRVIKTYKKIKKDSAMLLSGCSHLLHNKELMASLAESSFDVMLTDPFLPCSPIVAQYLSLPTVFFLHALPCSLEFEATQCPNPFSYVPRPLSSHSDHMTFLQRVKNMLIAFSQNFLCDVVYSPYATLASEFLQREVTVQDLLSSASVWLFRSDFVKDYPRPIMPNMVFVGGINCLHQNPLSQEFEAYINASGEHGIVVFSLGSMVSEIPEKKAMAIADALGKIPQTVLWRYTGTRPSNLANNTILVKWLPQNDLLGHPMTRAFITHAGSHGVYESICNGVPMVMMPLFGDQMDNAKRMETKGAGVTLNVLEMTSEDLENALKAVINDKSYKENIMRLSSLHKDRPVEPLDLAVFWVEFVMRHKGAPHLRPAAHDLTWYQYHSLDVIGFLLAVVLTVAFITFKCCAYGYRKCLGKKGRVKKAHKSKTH
Kind of data set: Chemical inhibition of cycloicaritin-3-O-glucuronidation by recombinant UGT1A1. In kind it is biochemical. The note with it: cycloicaritin 8 μM.

The target in data set [2] is T3, HeLa1A1 cell lysate (Homo sapiens, UniProt P22309).
T3 sequence (P22309 26-533): T2 sequence (P22309 26-533)
Put plainly: Chemical inhibition of cycloicaritin-3-O-glucuronidation by HeLa1A1 cell lysate. In kind it is biochemical. The note with it: cycloicaritin 8 μM.

For a further data set, the system named is MRPs. Kind of data set: Effects of MRPs inhibitors on excretion of CICT-3-G in HeLa1A1 cells. In kind it is cell-based, human. The note with it: inhibitor 0.05 and 0.2 μM, cycloicaritin 8 μM.
Data set [3] deals with T2, recombinant UGT1A1. Kind of data set: Kinetics of cycloicaritin-3-O-glucuronidation by recombinant UGT1A1. In kind it is in vitro ADME. The note with it: Hill equation.
In data set [4] the target is T3, HeLa1A1 cell lysate. Put plainly: Kinetics of cycloicaritin-3-O-glucuronidation by HeLa1A1 cell lysate. In kind it is in vitro ADME. The note with it: Hill equation.
Data set [5] is described as follows: Metabolite formation from cycloicaritin by wild-type HeLa cell lysate. The note with it: cycloicaritin 8 μM, 2 h. The class given is in vitro ADME, human.
The conditions of data set [6]: cited from earlier work.
For data set [7] the following is noted: cited from earlier work. The source holds these as a separate data set.

Chain of MRP1 (P33527 whole entry): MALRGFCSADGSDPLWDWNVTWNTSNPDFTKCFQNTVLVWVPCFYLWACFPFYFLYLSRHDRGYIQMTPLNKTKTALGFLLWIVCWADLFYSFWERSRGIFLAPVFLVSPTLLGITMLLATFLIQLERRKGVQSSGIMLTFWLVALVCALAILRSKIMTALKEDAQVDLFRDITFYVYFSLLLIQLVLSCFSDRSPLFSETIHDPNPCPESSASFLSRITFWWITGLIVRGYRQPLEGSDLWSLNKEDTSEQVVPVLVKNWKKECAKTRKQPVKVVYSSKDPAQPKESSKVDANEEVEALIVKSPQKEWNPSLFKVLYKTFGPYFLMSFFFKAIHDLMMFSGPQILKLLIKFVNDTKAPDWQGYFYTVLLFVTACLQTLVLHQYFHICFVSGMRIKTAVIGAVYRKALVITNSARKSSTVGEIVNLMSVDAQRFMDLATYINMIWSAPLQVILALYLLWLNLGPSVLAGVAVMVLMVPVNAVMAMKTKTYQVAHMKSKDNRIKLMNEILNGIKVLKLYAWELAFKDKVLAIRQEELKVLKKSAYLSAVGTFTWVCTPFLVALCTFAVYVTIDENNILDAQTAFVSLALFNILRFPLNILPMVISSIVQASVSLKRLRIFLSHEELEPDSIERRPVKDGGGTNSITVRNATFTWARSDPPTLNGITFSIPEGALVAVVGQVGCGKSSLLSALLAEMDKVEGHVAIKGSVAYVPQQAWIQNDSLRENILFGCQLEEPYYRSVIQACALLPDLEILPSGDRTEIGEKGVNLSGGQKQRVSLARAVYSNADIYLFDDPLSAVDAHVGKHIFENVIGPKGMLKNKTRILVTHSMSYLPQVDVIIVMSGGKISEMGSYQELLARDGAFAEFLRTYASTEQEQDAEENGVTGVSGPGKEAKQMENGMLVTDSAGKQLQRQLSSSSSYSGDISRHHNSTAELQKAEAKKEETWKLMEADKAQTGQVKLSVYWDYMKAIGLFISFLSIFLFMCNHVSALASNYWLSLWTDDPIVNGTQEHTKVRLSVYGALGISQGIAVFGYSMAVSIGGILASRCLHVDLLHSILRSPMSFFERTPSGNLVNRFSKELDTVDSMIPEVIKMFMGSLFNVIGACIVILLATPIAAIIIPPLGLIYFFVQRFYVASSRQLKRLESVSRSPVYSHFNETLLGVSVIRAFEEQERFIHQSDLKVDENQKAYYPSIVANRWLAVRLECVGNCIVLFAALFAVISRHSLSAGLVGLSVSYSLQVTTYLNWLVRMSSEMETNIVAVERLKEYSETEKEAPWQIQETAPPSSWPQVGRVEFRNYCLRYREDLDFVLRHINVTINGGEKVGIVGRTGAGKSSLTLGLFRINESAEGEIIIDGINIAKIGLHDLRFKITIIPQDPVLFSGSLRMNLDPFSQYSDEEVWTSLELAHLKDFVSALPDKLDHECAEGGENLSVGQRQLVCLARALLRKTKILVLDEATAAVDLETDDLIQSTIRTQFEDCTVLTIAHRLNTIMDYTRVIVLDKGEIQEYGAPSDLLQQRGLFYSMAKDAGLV

Take `COc1ccc(-c2oc3c4c(cc(O)c3c(=O)c2O[C@@H]2O[C@H](C(=O)O)[C@@H](O)[C@H](O)[C@H]2O)OC(C)(C)CC4)cc1` [CICT-3-G, cycloicaritin-3-O-glucuronide]: at MRP1, the “decrease of the efflux clearance of CICT-3-G” value came out at 52.0%. The “decrease in the efflux clearance of CICT-3-G” value on MRP4 was 28.7%.

With `COc1ccc2c3c([nH]c2c1)[C@H](CC(C)C)N1C(=O)[C@H](CCC(=O)OC(C)(C)C)NC(=O)[C@@H]1C3` [Ko143], the results for the “remaining cycloicaritin-3-O-glucuronidation activity, % of the control values” on recombinant UGT1A1 [1] (inhibitor 20 μM) and at HeLa1A1 cell lysate [2] (inhibitor 20 μM) were 12.5% and 8.8%, respectively.

Consider `CCCCC/C=C\C\C=C/C=C/C=C/[C@@H](SC[C@H](NC(=O)CC[C@H](N)C(=O)O)C(=O)NCC(=O)O)[C@@H](O)CCCC(=O)O` [LTC4, leukotriene C4], for which the “effect on cycloicaritin-3-O-glucuronidation activity” value at recombinant UGT1A1 [1] (inhibitor 0.05 and 0.2 μM) is “did not alter”. The “effect on cycloicaritin-3-O-glucuronidation activity” value at HeLa1A1 cell lysate [2] (inhibitor 0.05 and 0.2 μM) is “did not alter”. Besides, in the data set on MRPs, the “effect on CLapp value of CICT-3-G” value is given as “no significant changes”, the “effect on fmet value of CICT-3-G” value is given as “no significant changes”, the “effect on the intracellular level of CICT-3-G” value is recorded as “did not alter” and the “effect on the rate of efflux excretion of CICT-3-G” value is given as “did not alter”.

For the compound `COc1ccc(-c2oc3c4c(cc(O)c3c(=O)c2O)OC(C)(C)CC4)cc1` [cycloicaritin, Cycloicaritin], the figures for the “CLmax of cycloicaritin-3-O-glucuronidation” value on recombinant UGT1A1 [3] and on HeLa1A1 cell lysate [4] were 190 µL/min/mg and 17 µL/min/mg, respectively. Further, the “S50 of cycloicaritin-3-O-glucuronidation” value on recombinant UGT1A1 [3] came out at 1.43 µM; at HeLa1A1 cell lysate [4], 1.19 µM. Moreover, the “n (Hill coefficient) of cycloicaritin-3-O-glucuronidation” value came out at 1.67 µM at recombinant UGT1A1 [3] and 1.71 µM on HeLa1A1 cell lysate [4]. Besides, the “Vmax of cycloicaritin-3-O-glucuronidation” value on recombinant UGT1A1 [3] (cycloicaritin 0.1-10 μM) was found to be 0.54 nmol/min/mg; at HeLa1A1 cell lysate [4] (cycloicaritin 0.1-10 μM), 0.04 nmol/min/mg. Besides, the “metabolites detected after incubation with cell lysate” value in [5] was “no metabolites were detected”.

On to `COc1ccc(-c2oc3c(CC=C(C)C)c(O)cc(O)c3c(=O)c2O)cc1` [icaritin], for which the “CLint of glucuronidation in human liver” value in [6] was greater than 350 µL/min/mg. The “CLint of glucuronidation in human intestine” value in [7] was greater than 180 µL/min/mg.

Consider `COc1ccc(-c2oc3c(CCC(C)(C)O)c(O)cc(O)c3c(=O)c2O)cc1` [wushanicaritin], for which the “CLint of glucuronidation in human liver” value in data set [6] was greater than 350 µL/min/mg. In addition, the “CLint of glucuronidation in human intestine” value in [7] was greater than 180 µL/min/mg.
